Measurements taken from ChEMBL document CHEMBL1201862, “PubChem BioAssay data set” (2004).
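Method: 48-hour compound exposure of cells in 96-well plates, five concentrations, linear interpolation of endpoints. GI50 is the concentration that inhibits growth by half.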 Activity calls are given as the source filed them. Cut-off read from the data, not from the text of the source: active = GI50 up to about 1.1 µM and inactive = higher.

Legend:
Experiment in all cases: NCI anticancer screen, dose series, 48 h
BT-549 = system: BT-549
CAKI-1 = system: CAKI-1
CCRF-CEM = system: CCRF-CEM
HCT-116 = system: HCT-116
HCT-15 = system: HCT-15
HT-29 = system: HT-29
Hs-578T = system: Hs-578T
KM12 = system: KM12
M14 = system: M14
MCF7 = system: MCF7
MDA-MB-231 = system: MDA-MB-231
MDA-N = system: MDA-N
MOLT-4 = system: MOLT-4
PC-3 = system: PC-3
SF-268 = system: SF-268
SNB-19 = system: SNB-19
SW-620 = system: SW-620
T47D = system: T47D
U-251 = system: U-251
UACC-62 = system: UACC-62

Compound	GI50 (BT-549)	GI50 (CAKI-1)	GI50 (CCRF-CEM)	GI50 (HCT-116)	GI50 (HCT-15) [µM]	GI50 (HT-29)	GI50 (Hs-578T)	GI50 (KM12)	GI50 (M14)	GI50 (MCF7)	GI50 (MDA-MB-231)	GI50 (MDA-N)	GI50 (MOLT-4)	GI50 (PC-3)	GI50 (SF-268)	GI50 (SNB-19)	GI50 (SW-620)	GI50 (T47D)	GI50 (U-251)	GI50 (UACC-62)
O=C(N[C@@H](Cc1ccccc1)B(O)O)[C@H](Cc1cccc2ccccc12)NC(=O)N1CCOCC1	0.000468 µM (active)	0.00555 µM (active)	0.000186 µM (active)	0.000412 µM (active)	0.155	0.00239 µM (active)	0.00175 µM (active)	0.00185 µM (active)	0.00168 µM (active)	0.000476 µM (active)	0.00267 µM (active)	< 0.01 µM (active)	0.000371 µM (active)	0.00569 µM (active)	0.00161 µM (active)	0.00708 µM (active)	0.00258 µM (active)	0.00104 µM (active)	0.00423 µM (active)	0.00248 µM (active)
C/C(Cc1ccc2c(c1)OCO2)=N\N=c1\sc2ccccc2n1C	> 100 µM (inactive)	> 100 µM (inactive)	92.5 µM (inactive)	48.5 µM (inactive)	68.4	42.8 µM (inactive)	> 100 µM (inactive)	> 100 µM (inactive)	> 100 µM (inactive)	72.9 µM (inactive)	> 100 µM (inactive)	83.2 µM (inactive)	78.3 µM (inactive)	97.1 µM (inactive)	> 100 µM (inactive)	> 100 µM (inactive)	> 100 µM (inactive)	58.7 µM (inactive)	> 100 µM (inactive)	> 100 µM (inactive)
CN(C)CC1CCCCCCCCCC(CN(C)C)C1=O (stereo not given)	6.21 µM (inactive)	> 35.4 µM (inactive)	12 µM (inactive)	> 26.7 µM (inactive)	> 22.3	14.3 µM (inactive)	8.18 µM (inactive)	> 21.4 µM (inactive)	16.9 µM (inactive)	5.07 µM (inactive)	17.3 µM (inactive)	5.62 µM (inactive)	7.03 µM (inactive)	4.41 µM (inactive)	> 34.3 µM (inactive)	> 39.7 µM (inactive)	> 21.2 µM (inactive)	7.06 µM (inactive)	> 37.5 µM (inactive)	22 µM (inactive)
Cc1cc2ncn(C3CCCO3)c2cc1C (stereo not given)	> 100 µM (inactive)	> 100 µM (inactive)	> 100 µM (inactive)	> 100 µM (inactive)	> 100	> 100 µM (inactive)	> 100 µM (inactive)	74.5 µM (inactive)	> 100 µM (inactive)	> 100 µM (inactive)	> 100 µM (inactive)	> 100 µM (inactive)	> 100 µM (inactive)	> 100 µM (inactive)	> 100 µM (inactive)	> 100 µM (inactive)	> 100 µM (inactive)	> 100 µM (inactive)	> 100 µM (inactive)	> 100 µM (inactive)
COc1ccc2c(c1)CCCN2S(=O)(=O)c1ccccc1[N+](=O)[O-]	9.06 µM (inactive)	> 89.5 µM (inactive)	33.7 µM (inactive)	24.2 µM (inactive)	14.3	21.4 µM (inactive)	43.7 µM (inactive)	10.7 µM (inactive)	40.8 µM (inactive)	21.6 µM (inactive)	53.5 µM (inactive)	3.73 µM (inactive)	14.4 µM (inactive)	34.9 µM (inactive)	49.5 µM (inactive)	> 73.3 µM (inactive)	17.4 µM (inactive)	48.2 µM (inactive)	24.3 µM (inactive)	47.8 µM (inactive)
COC(=O)Nc1nc(=O)c2cc(OC)c(OC)cc2[nH]1	15.3 µM (inactive)	20.2 µM (inactive)	6.04 µM (inactive)	5.2 µM (inactive)	17.5	6.68 µM (inactive)	66.1 µM (inactive)	5.31 µM (inactive)	> 100 µM (inactive)	6.15 µM (inactive)	81.3 µM (inactive)	2.31 µM (inactive)	6.84 µM (inactive)	3.29 µM (inactive)	> 100 µM (inactive)	36.4 µM (inactive)	3.85 µM (inactive)	36 µM (inactive)	61.5 µM (inactive)	6.56 µM (inactive)
[O-]/[N+](=C\c1ccccc1OC(=S)S)c1ccc(Cl)cc1	24.1 µM (inactive)	13.6 µM (inactive)	2.42 µM (inactive)	10.1 µM (inactive)	15.7	22.4 µM (inactive)	51.1 µM (inactive)	26.7 µM (inactive)	24.2 µM (inactive)	13 µM (inactive)	13.7 µM (inactive)	18 µM (inactive)	5.46 µM (inactive)	23.9 µM (inactive)	19.5 µM (inactive)	83.4 µM (inactive)	11.2 µM (inactive)	6.01 µM (inactive)	19.8 µM (inactive)	11.9 µM (inactive)
